{
  "source": "patent US12502362B2",
  "about": "“Inhibitors of nucleotidyltransferase superfamily enzymes as antibiotics” (priority 2017, dated 2025)",
  "key": {"S. aureus (ATCC 29213)": {"tested_on": "S. aureus (ATCC 29213)", "experiment": "MIC80 on S. aureus", "assay_type": "cell-based, Staphylococcus aureus", "settings": "≥80% growth inhibition"}, "Staphylococcus hominis": {"tested_on": "Staphylococcus hominis", "assay_type": "cell-based", "procedure": "(§1) It was also tested whether compounds #63 and #285 can inhibit other coagulase-negative Staphylococcus (CNS) including S. epidermidis, S. hominis, etc. […]."}, "[1]": {"tested_on": "Staphylococcus epidermidis", "assay_type": "cell-based", "procedure": "as §1"}, "[2]": {"tested_on": "Ps. aeruginosa (ATCC 27853)", "experiment": "MIC80 on Ps. aeruginosa", "assay_type": "cell-based", "settings": "Pseudomonas aeruginosa, ATCC27853"}, "[3]": {"tested_on": "Staphylococcus saprophyticus (ATCC BAA-750)", "experiment": "MIC80 on S. saprophyticus", "assay_type": "cell-based", "settings": "S. saprophyticus ATCC BAA-750, read-out: MIC80 S. sapro", "procedure": "To further characterize the compounds, the minimal inhibitory concentration (MIC80) were determined for selected compounds. MIC80 is defined as the compound concentration at which ≥80% bacterial growth is inhibited compare to untreated controls. Meanwhile, for the selected compounds, cytotoxicity assays (CC50) were performed on a HepG2-derived hepatoblastoma cell line (HEPDES19). […] For CC50 evaluation, soluble tetrazolium dye (MTS) was used to measure mitochondrial toxicity in a human hepatoblastoma cell line (18). The bacteria (E. coli, S. saprophyticus and A. baumannii) used in MIC80 measurements were the same as that in the primary screening, but for Staphylococcus, S. aureus is used primarily because it is a common pathogen in Staphylococcaeae family, while S. saprophyticus is part of the normal human flora."}, "E. coli (ATCC 35218)": {"tested_on": "E. coli (ATCC 35218)", "experiment": "microbe, parasite or virus in culture", "assay_type": "cell-based"}, "[4]": {"tested_on": "S. aureus ATCC strains and MRSA", "assay_type": "cell-based, Staphylococcus aureus"}},
  "note": "Like-named read-outs stand apart in the source and are kept apart here.",
  "data": [
    {"smiles": "O=C(O)c1cn(C2CC2)c2cc(N3CCNCC3)c(F)cc2c1=O", "note": "[Compound 67, Ciprofloxacin]", "values": [
      {"measurement": "MIC80 S. aureus", "setting": "S. aureus (ATCC 29213); S. aureus ATCC 29213 (MSSA)", "value": "<2.6", "unit": "µM"},
      {"measurement": "MIC80", "setting": "S. aureus (ATCC 29213); Staphylococcus aureus, ATCC 29213 / MSSA, read-out: MIC80 S. aureus, S. aureus ATCC 29213 (MSSA)", "value": "< 2.9", "unit": "µM"},
      {"measurement": "Antibiotic susceptibility", "setting": "Staphylococcus hominis", "value": "R and S"},
      {"measurement": "Antibiotic susceptibility", "setting": "[1]", "value": "R and S"},
      {"measurement": "MIC80", "setting": "[2]", "value": "< 2.9", "unit": "µM"},
      {"measurement": "MIC80", "setting": "[3]", "value": "<2.9", "unit": "µM"},
      {"measurement": "MIC80", "setting": "[3]; Staphylococcus saprophyticus, ATCCBAA750", "value": "< 2.9", "unit": "µM"},
      {"measurement": "MIC80 E. coli", "setting": "E. coli (ATCC 35218); E. coli ATCC 35218", "value": "<2.9", "unit": "µM"},
      {"measurement": "MIC80", "setting": "E. coli (ATCC 35218); Escherichia coli, ATCC35218, read-out: MIC80 E. coli, E. coli ATCC 35218", "value": "< 2.9", "unit": "µM"},
      {"measurement": "Antibiotic susceptibility", "setting": "[4]; S. aureus ATCC 25923", "value": "S"},
      {"measurement": "Antibiotic susceptibility", "setting": "[4]; S. aureus ATCC 29213", "value": "S"},
      {"measurement": "Antibiotic susceptibility", "setting": "[4]; S. aureus ATCC BAA 976", "value": "S"},
      {"measurement": "Antibiotic susceptibility", "setting": "[4]; S. aureus ATCC BAA 977", "value": "S"},
      {"measurement": "Antibiotic susceptibility", "setting": "[4]; S. aureus ATCC BAA 1026", "value": "R"},
      {"measurement": "Antibiotic susceptibility", "setting": "[4]; Sa1 (MRSA)", "value": "R"},
      {"measurement": "Antibiotic susceptibility", "setting": "[4]; Sa2 (MRSA)", "value": "R"},
      {"measurement": "Antibiotic susceptibility", "setting": "[4]; Sa3 (MRSA)", "value": "R"},
      {"measurement": "Antibiotic susceptibility", "setting": "[4]; Sa5 (MRSA)", "value": "R"},
      {"measurement": "Antibiotic susceptibility", "setting": "[4]; Sa6 (MRSA)", "value": "R"},
      {"measurement": "Antibiotic susceptibility", "setting": "[4]; Sa7 (MRSA)", "value": "S"},
      {"measurement": "Antibiotic susceptibility", "setting": "[4]; Sa8 (MRSA)", "value": "R"},
      {"measurement": "Antibiotic susceptibility", "setting": "[4]; Sa9 (MRSA)", "value": "R"},
      {"measurement": "Antibiotic susceptibility", "setting": "[4]; Sa10 (MRSA)", "value": "R"},
      {"measurement": "Antibiotic susceptibility", "setting": "[4]; Sa11 (MRSA)", "value": "R"},
      {"measurement": "Antibiotic susceptibility", "setting": "[4]; Sa12 (MRSA)", "value": "R"},
      {"measurement": "Antibiotic susceptibility", "setting": "[4]; Sa14 (MRSA)", "value": "R"},
      {"measurement": "Antibiotic susceptibility", "setting": "[4]; Sa15 (MRSA)", "value": "R"},
      {"measurement": "Antibiotic susceptibility", "setting": "[4]; Sa16 (MRSA)", "value": "R"},
      {"measurement": "Antibiotic susceptibility", "setting": "[4]; Sa17 (MRSA)", "value": "R"},
      {"measurement": "Antibiotic susceptibility", "setting": "[4]; Sa18 (MRSA)", "value": "R"},
      {"measurement": "Antibiotic susceptibility", "setting": "[4]; Sa19 (MRSA)", "value": "S"},
      {"measurement": "Antibiotic susceptibility", "setting": "[4]; Sa20 (MRSA)", "value": "R"},
      {"measurement": "Antibiotic susceptibility", "setting": "[4]; Sa21 (MRSA)", "value": "S"},
      {"measurement": "Antibiotic susceptibility", "setting": "[4]; Sa22 (MRSA)", "value": "S"},
      {"measurement": "Antibiotic susceptibility", "setting": "[4]; Sa23 (MRSA)", "value": "S"}
    ]}
  ]
}
